# Test results published in the supplement of paper PMC11923942.
# Legend:
# [1] = collision cross section (N2, base ion); higher = larger ion cross section
# Method: (§1)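 Standards of hydrophobic organic contaminants were analysed by GC-APCI (positive mode, dry or wet source conditions) coupled to cyclic ion mobility-QTOF MS. CCS was measured for the base ion (sometimes a fragment ion) in N2 drift gas (one-pass mode, calibrated with a Waters 22-compound mix).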
# [2] = GC retention time (DB-5MS, GC-APCI); higher = later elution
# Method: as §1, with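 “mix). 5 mL/min).” for “mix).”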
Structure (SMILES),collision cross section [1] [Å²],GC retention time [2] [min]
"O=P(OC(CCl)CCl)(OC(CCl)CCl)OC(CCl)CCl [Tris(1,3-dichloropropan-2-yl) phosphate] (APCI source condition: Wet, base ion: [M+H]+)",175.08,20.4
"CC(CCl)OP(=O)(OC(C)CCl)OC(C)CCl (stereo not given) [Tris(1-chloro-2-propyl)phosphate] (APCI source condition: Wet, base ion: [M-C3H4Cl]+)",160.76,15.4
"CCCCOCCOP(=O)(OCCOCCCC)OCCOCCCC [Tris(2-butoxyethyl) phosphate] (APCI source condition: Wet, base ion: [M+H]+)",198.91,21.1
"O=P(OCCCl)(OCCCl)OCCCl [Tris(2-chloroethyl) phosphate] (APCI source condition: Wet, base ion: [M+H]+)",145.65,15.1
"CCCCC(CC)COP(=O)(OCC(CC)CCCC)OCC(CC)CCCC (stereo not given) [Tris(2-ethylhexyl) phosphate] (APCI source condition: Wet, base ion: [M+H]+)",221.61,21.5
"O=S1OC[C@@H]2[C@H](CO1)[C@@]1(Cl)C(Cl)=C(Cl)[C@]2(Cl)C1(Cl)Cl (stereo partly drawn) [α-Endosulfan] (APCI source condition: Wet, base ion: [M+H]+)",163.16,18.9
"ClC1C(Cl)C(Cl)C(Cl)C(Cl)C1Cl (stereo not drawn) [α-Hexachlorocyclohexane] (APCI source condition: Dry, base ion: [M-H2Cl3]+)",137.25,14.5
"O=S1OC[C@@H]2[C@H](CO1)[C@]1(Cl)C(Cl)=C(Cl)[C@]2(Cl)C1(Cl)Cl (stereo partly drawn) [β-Endosulfan] (APCI source condition: Wet, base ion: [M+H]+)",162.35,20
"Cl[C@H]1[C@H](Cl)[C@@H](Cl)[C@H](Cl)[C@@H](Cl)[C@@H]1Cl [β-Hexachlorocyclohexane] (APCI source condition: Dry, base ion: [M-H2Cl3]+)",138.19,15.1
"ClC1C(Cl)C(Cl)C(Cl)C(Cl)C1Cl (stereo not given) [γ-Hexachlorocyclohexane] (APCI source condition: Dry, base ion: [M-H2Cl3]+)",137.38,15.2
